In ChEMBL document CHEMBL1129904, “3-chloro-4-carboxamido-6-arylpyridazines as a non-peptide class of interleukin-1 converting enzyme inhibitor” (Bioorg Med Chem Lett, 1997) one finds IC50 and k obs / 1 data, which are given here for 25 compounds.

pIC50: −log10 of the molar value.

One assay deals with T1, Caspase-1 (Homo sapiens, UniProt P29466).
T1 sequence (P29466 whole entry): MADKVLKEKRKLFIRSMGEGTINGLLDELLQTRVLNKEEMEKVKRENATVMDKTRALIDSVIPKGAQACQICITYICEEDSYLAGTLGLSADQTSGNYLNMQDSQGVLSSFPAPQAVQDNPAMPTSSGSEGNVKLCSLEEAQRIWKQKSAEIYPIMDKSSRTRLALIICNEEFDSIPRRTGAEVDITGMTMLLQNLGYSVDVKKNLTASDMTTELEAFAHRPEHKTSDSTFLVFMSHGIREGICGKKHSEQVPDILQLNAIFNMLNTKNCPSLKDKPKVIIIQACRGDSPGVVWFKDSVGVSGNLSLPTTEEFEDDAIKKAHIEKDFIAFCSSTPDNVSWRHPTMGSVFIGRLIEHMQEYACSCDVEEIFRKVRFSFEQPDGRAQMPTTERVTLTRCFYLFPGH
Put plainly: Antiinflammatory activity measured as the concentration required to inhibit IL-1 beta converting enzyme.

The target in the next assay is T2, Caspase-1 (Homo sapiens) (UniProt P29466).
T2 sequence (whole entry): T1 sequence (P29466 whole entry)
Put plainly: Inactivation of IL-1 beta converting enzyme.

The term pIC50 denotes the negative decadic logarithm of the IC50, by convention in mol/L. Low values mean a large IC50, high ones a small IC50. In the case of `CCOC(=O)CNC(=O)c1cc(-c2ccncc2)nnc1Cl`, the pIC50 against Caspase-1 was 5.70. On Caspase-1, `CSc1nnc(-c2ccncc2)cc1C(N)=O` showed a pIC50 of under 3.60. `NC(=O)c1cc(-c2ccc(Cl)cc2)nnc1Cl` had a negative logarithm of the IC50 (pIC50) on Caspase-1 of 5.30. The compound `N#Cc1ccc(-c2cc(C(N)=O)c(Cl)nn2)cc1Cl` had a k obs / 1 on Caspase-1 (Homo sapiens) of 225 M⁻¹ s⁻¹. Moreover, the pIC50 against Caspase-1 was 6.30. `NC(=O)c1cc(-c2ccc(NS(=O)(=O)c3ccccc3)cc2)nnc1Cl`: on Caspase-1, the pIC50 is 4.74.

For `COc1ccc(-c2cc(C(N)=O)c(Cl)nn2)cc1`, the k obs / 1 on Caspase-1 (Homo sapiens) was under 5 M⁻¹ s⁻¹. In addition, the pIC50 at Caspase-1 was 4.18. The compound `O=C(NCc1ccc(Cl)cc1Cl)c1cc(-c2ccncc2)nnc1Cl` came in with a k obs / 1 on Caspase-1 (Homo sapiens) of 140 M⁻¹ s⁻¹. This compound gave a pIC50 against Caspase-1 of 5.70. On to `NC(=O)c1cc(-c2ccc([N+](=O)[O-])cc2)nnc1Cl`, for which the pIC50 at Caspase-1 was 6.15. Turning to `Cc1c(-c2ccc(Cl)cc2)nnc(Cl)c1C(N)=O`, the pIC50 against Caspase-1 was under 3.60. Still for that read-out and setting: the figure for `CN(C)C(=O)c1cc(-c2ccncc2)nnc1Cl` is under 3.60. In turn, `NC(=O)c1cc(-c2ccccc2)nnc1Cl` displayed a k obs / 1 on Caspase-1 (Homo sapiens) of under 5 M⁻¹ s⁻¹. Further, the pIC50 on Caspase-1 was 4.24. The compound `CNC(=O)c1cc(-c2ccncc2)nnc1Cl` returned a k obs / 1 at Caspase-1 (Homo sapiens) of 25 M⁻¹ s⁻¹. The same compound showed a pIC50 on Caspase-1 of 5.00. For `CS(=O)(=O)c1c(F)cc(-c2cc(C(N)=O)c(Cl)nn2)cc1F`, in that order: 355 M⁻¹ s⁻¹ and 6.52. As to `CCOC(=O)c1cc(-c2ccncc2)nnc1Cl`, the k obs / 1 at Caspase-1 (Homo sapiens) is 10 M⁻¹ s⁻¹. Further, the negative-log IC50 (pIC50) against Caspase-1 was 4.89. In turn, `NC(=O)c1cnnc(-c2ccncc2)c1` gave a pIC50 against Caspase-1 of under 3.60.

On Caspase-1, `N#Cc1ccc(-c2cc(C(N)=O)c(Cl)nn2)cc1` showed a negative-log IC50 (pIC50) of 5.82. Turning to `N#Cc1cc(-c2ccncc2)nnc1Cl`, the pIC50 against Caspase-1 was 3.96. Compound `NC(=O)c1cc(-c2ccc(F)c(Cl)c2)nnc1Cl` returned a k obs / 1 on Caspase-1 (Homo sapiens) of 45 M⁻¹ s⁻¹. This compound gave a pIC50 on Caspase-1 of 5.26.

Take `CNC(=O)c1cc(Cl)nnc1Cl`: on Caspase-1, the pIC50 is under 3.60. For the compound `O=C(NCc1ccccc1)c1cc(-c2ccncc2)nnc1Cl`, the k obs / 1 at Caspase-1 (Homo sapiens) came to 50 M⁻¹ s⁻¹. In addition, on Caspase-1, the pIC50 is 5.40. For the compound `NC(=O)c1cc(-c2ccc(C(F)(F)F)cc2)nnc1Cl`, on Caspase-1 (Homo sapiens), the k obs / 1 stood at 40 M⁻¹ s⁻¹. This compound also had a pIC50 against Caspase-1 of 5.30. In the case of `COc1nnc(-c2ccncc2)cc1C(N)=O`, at Caspase-1, the pIC50 was under 3.60. As to `NC(=O)c1cc(-c2ccncc2)cnc1Cl`, the pIC50 on Caspase-1 is under 3.60.

`NC(=O)c1cc(-c2ccncc2)nnc1Cl` returned a k obs / 1 at Caspase-1 (Homo sapiens) of 70 M⁻¹ s⁻¹. At Caspase-1, this compound showed a negative-log IC50 (pIC50) of 5.52.

For `NC(=O)c1cc(-c2ccc(Br)cc2)nnc1Cl`, at Caspase-1, the pIC50 is 5.30.
